Reference: patent publication US12410208B2, “(2-acetamidyl)thio-beta-D-galactopyranoside derivatives” (Idorsia Pharmaceuticals Ltd, priority 2020, dated 2025)
Like-named read-outs stand apart in the source and are kept apart here.

Columns and labels:
[1] = biological target: biotinylated human Gal-3 (hGal-3) (Homo sapiens, UniProt P17931); assay: Competitive binding assay: biotinylated hGal-3 binding to microplate-adsorbed asialofetuin (ASF), spectrophotometric
Summary of the method: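 Serially diluted compounds competed with asialofetuin on the plate for biotinylated human Gal-3 during a 3 h incubation at 4° C. Streptavidin-peroxidase with ABTS gave the spectrophotometric signal. IC50 values were averaged over repeat runs.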

human Gal-1 (hGal-1) = human Gal-1 (hGal-1) (Homo sapiens, UniProt P09382); assay: Competitive binding assay: biotinylated hGal-1 binding to microplate-adsorbed asialofetuin (ASF), spectrophotometric; details: hGal-1 binding to asialofetuin; Table 15; R and S epimers of selected Examples also listed; read-out: IC50 (Galectin-1 inhibition)
Chain of human Gal-1 (hGal-1) (P09382 whole entry): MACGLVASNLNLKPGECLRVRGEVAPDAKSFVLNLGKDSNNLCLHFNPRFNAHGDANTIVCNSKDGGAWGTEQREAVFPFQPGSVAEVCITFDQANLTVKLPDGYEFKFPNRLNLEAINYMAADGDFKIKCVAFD
Summary of the method: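 Spectrophotometric competition readout with ABTS after streptavidin-peroxidase (80 ng/mL, 1 h, 4 °C) detection of bound biotinylated hGal-1.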

[2] = Table 13, hGal-3, read-out: IC50 (Gal-3 inhibition)
[3] = Table 6, hGal-3, read-out: IC50 (Gal-3 inhibition)
[4] = Table 11, hGal-3, read-out: IC50 (Gal-3 inhibition)
[5] = Table 12, hGal-3, read-out: IC50 (Gal-3 inhibition)
[6] = Gal-3 inhibition, Table 5, read-out: IC50

Chain of biotinylated human Gal-3 (hGal-3) (P17931 whole entry): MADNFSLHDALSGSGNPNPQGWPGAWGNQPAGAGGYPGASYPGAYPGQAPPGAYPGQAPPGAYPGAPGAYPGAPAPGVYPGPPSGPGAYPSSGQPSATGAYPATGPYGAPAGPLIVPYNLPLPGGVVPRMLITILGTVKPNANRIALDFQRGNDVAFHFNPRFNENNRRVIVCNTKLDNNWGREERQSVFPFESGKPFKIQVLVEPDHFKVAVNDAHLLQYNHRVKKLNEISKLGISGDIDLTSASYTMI

Row | Compound | IC50 (human Gal-1 (hGal-1)) | further results
1 | CO[C@@H]1[C@@H](n2cc(-c3cc(F)c(F)c(F)c3)nn2)[C@@H](O)[C@@H](CO)O[C@H]1S[C@@H](C(=O)N1CCC(F)(F)CC1)C1(O)CCC2(CCC2)CC1 [Example 2.69.226R.I., (R)-1-(4,4-Difluoropiperidin-1-yl)-2-(((2S,3R,4S,5R,6R)-5-hydroxy-6-(hydroxymethyl)-3-methoxy-4-(4-(3,4,5-trifluorophenyl)-1H-1,2,3-triazol-1-yl)tetrahydro-2H-pyran-2-yl)thio)-2-(7-hydroxyspiro[3.5]nonan-7-yl)ethan-1-one] | 1.64 µM | IC50 [1, 2]: 0.57 µM
2 | CN(CC1CC1)C(=O)C(S[C@@H]1O[C@H](CO)[C@H](O)[C@H](n2cc(-c3cc(F)c(F)c(F)c3)nn2)[C@H]1O)C(O)c1ccn(C)n1 (stereo partly drawn) [Example 2.65.218., N-(cyclopropylmethyl)-2-(((2S,3R,4S,5R,6R)-3,5-dihydroxy-6-(hydroxymethyl)-4-(4-(3,4,5-trifluorophenyl)-1H-1,2,3-triazol-1-yl)tetrahydro-2H-pyran-2-yl)thio)-3-hydroxy-N-methyl-3-(1-methyl-1H-pyrazol-3-yl)propanamide] | 3.07 µM | IC50 ([1]; Gal-3 inhibition, Table 7, read-out: IC50): 0.69 µM
3 | CN(CCN1CCOCC1)C(=O)C(S[C@@H]1O[C@H](CO)[C@H](O)[C@H](n2cc(-c3cc(F)c(F)c(F)c3)nn2)[C@H]1O)C(C)(C)O (stereo partly drawn) [Example 2.31.230., 2-(((2S,3R,4S,5R,6R)-3,5-Dihydroxy-6-(hydroxymethyl)-4-(4-(3,4,5-trifluorophenyl)-1H-1,2,3-triazol-1-yl)tetrahydro-2H-pyran-2-yl)thio)-3-hydroxy-N,3-dimethyl-N-(2-morpholinoethyl)butanamide] | 1.25 µM | IC50 [1, 3]: 0.11 µM
4 | CCN(C)C(=O)C(S[C@@H]1O[C@H](CO)[C@H](O)[C@H](n2cc(-c3cc(F)c(F)c(F)c3)nn2)[C@H]1O)C(O)(CC)CC (stereo partly drawn) [Example 2.32.203., 2-(((2S,3R,4S,5R,6R)-3,5-Dihydroxy-6-(hydroxymethyl)-4-(4-(3,4,5-trifluorophenyl)-1H-1,2,3-triazol-1-yl)tetrahydro-2H-pyran-2-yl)thio)-N,3-diethyl-3-hydroxy-N-methylpentanamide] | 1.89 µM | IC50 [1, 3]: 0.49 µM
5 | CN(CC1(F)CCCC1)C(=O)C(S[C@@H]1O[C@H](CO)[C@H](O)[C@H](n2cc(-c3cc(F)c(F)c(F)c3)nn2)[C@H]1O)C1(O)CCC(F)(F)CC1 (stereo partly drawn) [Example 2.44.223R., 2-(4,4-Difluoro-1-hydroxycyclohexyl)-2-(((2S,3R,4S,5R,6R)-3,5-dihydroxy-6-(hydroxymethyl)-4-(4-(3,4,5-trifluorophenyl)-1H-1,2,3-triazol-1-yl)tetrahydro-2H-pyran-2-yl)thio)-N-((1-fluorocyclopentyl)methyl)-N-methylacetamide] | 13.4 µM | IC50 [1, 6]: 3.57 µM
6 | (2R,3R,4S,5R,6S)-2-(Acetoxymethyl)-6-(((S)-2-(ethyl(methyl)amino)-1-(3-hydroxy-1-(methoxycarbonyl)azetidin-3-yl)-2-oxoethyl)thio)-4-(4-(3,4,5-trifluorophenyl)-1H-1,2,3-triazol-1-yl)tetrahydro-2H-pyran-3,5-diyl diacetate [Example 2.58.203S.] | 0.1 µM | IC50 ([1]; Table 8, hGal-3, read-out: IC50 (Gal-3 inhibition)): 0.03 µM
7 | (S)-2-(4,4-Difluoro-1-hydroxycyclohexyl)-2-(((2S,3R,4S,5R,6R)-3,5-dihydroxy-6-(hydroxymethyl)-4-(4-(3,4,5-trifluorophenyl)-1H-1,2,3-triazol-1-yl)tetrahydro-2H-pyran-2-yl)thio)-1-(piperidin-1-yl)ethan-1-one [Example 2.44.208S.] | 0.03 µM | IC50 [1, 6]: 0.02 µM

Second part, led by results:

Row | IC50 (human Gal-1 (hGal-1)) | Compound | further results
8 | 0.8 µM | COCCN(C)C(=O)C(S[C@@H]1O[C@H](CO)[C@H](O)[C@H](n2cc(-c3cc(F)c(F)c(F)c3)nn2)[C@H]1O)C(C)(C)O (stereo partly drawn) [Example 2.31.229., 2-(((2S,3R,4S,5R,6R)-3,5-Dihydroxy-6-(hydroxymethyl)-4-(4-(3,4,5-trifluorophenyl)-1H-1,2,3-triazol-1-yl)tetrahydro-2H-pyran-2-yl)thio)-3-hydroxy-N-(2-methoxyethyl)-N,3-dimethylbutanamide] | IC50 [1, 3]: 0.11 µM
9 | 0.32 µM | CCN(C)C(=O)C(S[C@@H]1O[C@H](CO)[C@H](O)[C@H](n2cc(-c3cc(F)c(Cl)c(F)c3)nn2)[C@H]1O)C1(O)CCOCC1 (stereo partly drawn) [Example 11.41.203., 2-(((2S,3R,4S,5R,6R)-4-(4-(4-Chloro-3,5-difluorophenyl)-1H-1,2,3-triazol-1-yl)-3,5-dihydroxy-6-(hydroxymethyl)tetrahydro-2H-pyran-2-yl)thio)-N-ethyl-2-(4-hydroxytetrahydro-2H-pyran-4-yl)-N-methylacetamide] | IC50 [1, 4]: 0.03 µM
10 | 0.73 µM | CNC(=O)C(S[C@@H]1O[C@H](CO)[C@H](O)[C@H](n2cc(-c3cc(F)c(F)c(F)c3)nn2)[C@H]1OC)C1(O)CCC(F)(F)CC1 (stereo partly drawn) [Example 2.44.248.I., 2-(4,4-Difluoro-1-hydroxycyclohexyl)-2-(((2S,3R,4S,5R,6R)-5-hydroxy-6-(hydroxymethyl)-3-methoxy-4-(4-(3,4,5-trifluorophenyl)-1H-1,2,3-triazol-1-yl)tetrahydro-2H-pyran-2-yl)thio)-N-methylacetamide] | IC50 [1, 5]: 0.49 µM
11 | 0.68 µM | CCN(C)C(=O)C(S[C@@H]1O[C@H](CO)[C@H](O)[C@H](n2cc(-c3cc(F)c(C)c(F)c3)nn2)[C@H]1O)C1(O)CCOCC1 (stereo partly drawn) [Example 3.41.203., 2-(((2S,3R,4S,5R,6R)-4-(4-(3,5-Difluoro-4-methylphenyl)-1H-1,2,3-triazol-1-yl)-3,5-dihydroxy-6-(hydroxymethyl)tetrahydro-2H-pyran-2-yl)thio)-N-ethyl-2-(4-hydroxytetrahydro-2H-pyran-4-yl)-N-methylacetamide] | IC50 [1, 4]: 0.04 µM
12 | 0.1 µM | CO[C@@H]1[C@@H](n2cc(-c3cc(F)c(F)c(F)c3)nn2)[C@@H](O)[C@@H](CO)O[C@H]1SC(C(=O)N1CCOCC1)C1(O)CCC(F)(F)CC1 (stereo partly drawn) [Example 2.44.244.I., 2-(4,4-Difluoro-1-hydroxycyclohexyl)-2-(((2S,3R,4S,5R,6R)-5-hydroxy-6-(hydroxymethyl)-3-methoxy-4-(4-(3,4,5-trifluorophenyl)-1H-1,2,3-triazol-1-yl)tetrahydro-2H-pyran-2-yl)thio)-1-morpholinoethan-1-one] | IC50 [1, 5]: 0.07 µM
13 | 0.36 µM | CCN(C)C(=O)C(S[C@@H]1O[C@H](CO)[C@H](O)[C@H](n2cc(-c3ccc(Br)c(F)c3)nn2)[C@H]1O)C1(O)CCOCC1 (stereo partly drawn) [Example 12.41.203., 2-(((2S,3R,4S,5R,6R)-4-(4-(4-Bromo-3-fluorophenyl)-1H-1,2,3-triazol-1-yl)-3,5-dihydroxy-6-(hydroxymethyl)tetrahydro-2H-pyran-2-yl)thio)-N-ethyl-2-(4-hydroxytetrahydro-2H-pyran-4-yl)-N-methylacetamide] | IC50 [1, 4]: 0.04 µM
14 | 0.22 µM | CO[C@@H]1[C@@H](n2cc(-c3cc(F)c(F)c(F)c3)nn2)[C@@H](O)[C@@H](CO)O[C@H]1SC(C(=O)N(C)CC(C)(C)F)C1(O)CCC(F)(F)CC1 (stereo partly drawn) [Example 2.44.222.1., 2-(4,4-Difluoro-1-hydroxycyclohexyl)-N-(2-fluoro-2-methylpropyl)-2-(((2S,3R,4S,5R,6R)-5-hydroxy-6-(hydroxymethyl)-3-methoxy-4-(4-(3,4,5-trifluorophenyl)-1H-1,2,3-triazol-1-yl)tetrahydro-2H-pyran-2-yl)thio)-N-methylacetamide] | IC50 [1, 5]: 0.05 µM
15 | 0.19 µM | (S)-N-Cyclobutyl-2-(4,4-difluoro-1-hydroxycyclohexyl)-2-(((2S,3R,4S,5R,6R)-3,5-dihydroxy-6-(hydroxymethyl)-4-(4-(3,4,5-trifluorophenyl)-1H-1,2,3-triazol-1-yl)tetrahydro-2H-pyran-2-yl)thio)-N-methylacetamide [Example 2.44.206S.] | IC50 [1, 6]: 0.04 µM
16 | 0.17 µM | CO[C@@H]1[C@@H](n2cc(-c3cc(F)c(F)c(F)c3)nn2)[C@@H](O)[C@@H](CO)O[C@H]1SC(C(=O)N1CCC(F)(F)CC1)C1(O)CCC2(CC2)CC1 (stereo partly drawn) [Example 2.67.226.1., 1-(4,4-Difluoropiperidin-1-yl)-2-(((2S,3R,4S,5R,6R)-5-hydroxy-6-(hydroxymethyl)-3-methoxy-4-(4-(3,4,5-trifluorophenyl)-1H-1,2,3-triazol-1-yl)tetrahydro-2H-pyran-2-yl)thio)-2-(6-hydroxyspiro[2.5]octan-6-yl)ethan-1-one] | IC50 [1, 2]: 0.12 µM
17 | 0.59 µM | CN1CCC(O)(C(S[C@@H]2O[C@H](CO)[C@H](O)[C@H](n3cc(-c4cc(F)c(F)c(F)c4)nn3)[C@H]2O)C(=O)N(C)Cc2ccccc2)CC1 (stereo partly drawn) [Example 2.40.207., N-Benzyl-2-(((2S,3R,4S,5R,6R)-3,5-dihydroxy-6-(hydroxymethyl)-4-(4-(3,4,5-trifluorophenyl)-1H-1,2,3-triazol-1-yl)tetrahydro-2H-pyran-2-yl)thio)-2-(4-hydroxy-1-methylpiperidin-4-yl)-N-methylacetamide] | IC50 ([1]; Gal-3 inhibition, Table 4, read-out: IC50): 0.09 µM
18 | 0.03 µM | CN(CC1CC1)C(=O)C(S[C@@H]1O[C@H](CO)[C@H](O)[C@H](n2cc(-c3cc(F)c(F)c(F)c3)nn2)[C@H]1O)C1(O)CCC(F)(F)CC1 (stereo partly drawn) [Example 2.44.218., N-(Cyclopropylmethyl)-2-(4,4-difluoro-1-hydroxycyclohexyl)-2-(((2S,3R,4S,5R,6R)-3,5-dihydroxy-6-(hydroxymethyl)-4-(4-(3,4,5-trifluorophenyl)-1H-1,2,3-triazol-1-yl)tetrahydro-2H-pyran-2-yl)thio)-N-methylacetamide] | IC50 [1, 6]: 0.02 µM
